In assay [1] the target is T1, Phenylethanolamine N-methyltransferase (Bos taurus, UniProt P10938).
T1 sequence (P10938 whole entry): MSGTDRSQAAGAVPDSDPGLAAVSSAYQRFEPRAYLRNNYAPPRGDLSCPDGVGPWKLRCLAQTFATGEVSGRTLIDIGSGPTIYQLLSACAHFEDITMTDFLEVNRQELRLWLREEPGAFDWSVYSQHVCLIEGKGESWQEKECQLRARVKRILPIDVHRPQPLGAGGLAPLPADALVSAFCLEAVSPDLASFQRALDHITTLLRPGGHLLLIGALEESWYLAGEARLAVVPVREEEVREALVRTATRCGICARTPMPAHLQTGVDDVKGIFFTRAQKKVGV
Briefly: In vitro inhibitory activity measured against bovine adrenal phenylethanolamine N-methyltransferase(PNMT).

The target in assay [2] is T1, Phenylethanolamine N-methyltransferase. The assay is described as follows: In vitro inhibitory activity measured against bovine adrenal phenylethanolamine N-methyltransferase(PNMT); Ki values determined at incubation times of 5, 10, 15, 20 and 30 min.

For 7 compounds, Ki results are on record in ChEMBL document CHEMBL1124088, “Synthesis and evaluation of 3-substituted analogues of 1,2,3,4-tetrahydroisoquinoline as inhibitors of phenylethanolamine N-methyltransferase” (J Med Chem, 1988).

The Ki is a measure of affinity in units of concentration, obtained from inhibition or displacement. Lower therefore signals higher affinity. In assay [1], `O=C(O)C1Cc2ccccc2CN1` (configuration not stated) yielded a Ki of over 2000 µM.
With `COC(=O)C1Cc2ccccc2CN1` (configuration not stated), the Ki in assay [2] turned out to be 69.5 µM.
The compound `Clc1ccc2c(c1Cl)CNCC2` displayed a Ki in assay [1] of 0.24 µM.
The compound `OCC1Cc2ccc(Cl)c(Cl)c2CN1` (configuration not stated) showed a Ki in assay [1] of 0.38 µM.
The same measure, in the same setting: in the case of `CCC1Cc2ccccc2CN1` (configuration not stated) it was 23.9 µM.
Still for that read-out and setting: under `OCC1Cc2ccccc2CN1` (configuration not stated) stands 2.4 µM.
Still for that read-out and setting: under `NC(=O)C1Cc2ccccc2CN1` (configuration not stated) stands 40.5 µM.
